Measured values from a melting point compilation (Tetko et al.; mined from patent text by program, amines drawn as free bases though some values may be those of a salt).

First: COC(=O)C1=CC(=O)CCC1c1ccccc1 (racemic)
Second: COC(=O)c1cnc2cccc(O)c2c1
The melting point of the first is lower: 66 °C for the first, 200 °C for the second.

Compared with `CC1(C)Cc2cccc(OCCNCc3cccc(C4=C(F)CCC4)c3)c2O1`, `Oc1cccc(CCNCc2ccccc2)c1` is lower in melting point: 145 °C for the first, 86 to 88 °C for the second.

First: CSC=CC(C)(C)C(=O)O
Second: COC(=O)c1ccc(N(C)C)cn1
The melting point of the first is lower: 49 to 51 °C for the first, 100 to 103 °C for the second.

First: OC1CCc2oc3c(Cl)cc(Br)cc3c2C1 (single isomer, unassigned; (-))
Second: CC1CCc2c(Cl)c(N3CCOCC3)cc3c(=O)c(C(=O)O)cn1c23 (configuration not stated)
The melting point of the first is lower: 236 to 240 °C for the first, 271 to 274 °C for the second.

Compared with `ON=C1CCc2cc(F)ccc21`, `CC(C)c1nn(-c2ccc(F)cn2)cc1CCCO` is lower in melting point: 150 to 155 °C for the first, 78 to 79 °C for the second.

First: Cc1cnc2[nH]cc(/C=C3\N=C(N4CCCCC4)NC3=O)c2c1
Second: CNC(=S)C1(c2cc(C)ccn2)CCCS1 (configuration not stated)
The melting point of the first is higher: 320 to 321 °C for the first, 181 °C for the second.

First: CCC(OCCc1ccc(-c2ccc(Cl)cc2)cc1)C(=O)O (configuration not stated)
Second: O=C(COCc1ccc(Cl)cc1Cl)c1ccccc1
The melting point of the first is higher: 90 to 92 °C for the first, 83 to 85 °C for the second.

Compared with `CC(c1ccc(C#Cc2ccccc2)cc1)N(O)C(N)=O` (configuration not stated), `Nc1ccc(C#Cc2ccc(C#Cc3ccccc3)c([N+](=O)[O-])c2)cc1` is higher in melting point: 144 to 146 °C for the first, 175 to 177 °C for the second.

First: COc1cc2c(cc1OC)CN(CCCc1ccc(NC(=O)c3cccc4c(=O)c5cccc(OC)c5[nH]c34)cc1)CC2
Second: COc1cccc2c(=O)n(-c3ccc(Br)cc3)c(-c3cc(C)c(OCCO)c(C)c3)nc12
The melting point of the first is higher: 135 °C for the first, 100 to 102 °C for the second.

First: Cn1cc(-c2ccc(Cl)c(OC3SCC(O)C(O)C3O)c2)cn1 (configuration not stated)
Second: COc1ccncc1-c1ccc(OC2SCC(O)C(O)C2O)cn1 (configuration not stated)
The melting point of the first is lower: 158 °C for the first, 207 °C for the second.

Compared with `CC(=O)Nc1ccc(C(=O)CBr)cc1`, `CC(=O)Nc1ccc(NC(=O)C=C2CC(C(=O)O)Nc3cc(Cl)cc(Cl)c32)cc1` (racemic) is lower in melting point: 192 °C for the first, 185 °C for the second.

First: CN=C(NC#N)NCCCSCc1nsc(NC(=N)N)n1
Second: CCOC(=O)CNC(=O)c1csc(NC(=N)N)n1
The melting point of the first is lower: 117 to 120 °C for the first, 190 °C for the second.

Compared with `CC1(C)CN(CC2COc3ccccc3C2)c2nc(-c3ccncn3)cc(=O)n2C1` (racemic), `COc1ccccc1Nc1nc(-c2ccccn2)cs1` is higher in melting point: 84 to 86 °C for the first, 165 to 166 °C for the second.

First: Clc1nc(-c2cccnc2)sc1Br
Second: CSCCCNc1cn(-c2cccnc2)nc1Cl
The melting point of the first is higher: 114 to 115 °C for the first, 80 to 81 °C for the second.

Compared with `CC(=C1SCCCS1)c1ccc(Oc2ccc(O)cc2)cc1`, `CC(C)(C)C1=NN(c2ccc(C(=O)O)cc2)C(c2ccc(O)cc2)C1` (configuration not stated) is higher in melting point: 84.5 °C for the first, 259 °C for the second.

First: CCSc1nc2cc(Cl)ccc2s1
Second: O=c1cc(Cl)nc2sc(SCc3ccccc3)nn12
The melting point of the first is lower: 49 to 50 °C for the first, 138 to 140 °C for the second.

Compared with `Nc1ccc(Nc2cc3c(cc2Nc2ccc(N)cc2)C(=O)NC3=O)cc1`, `CCOc1cc(C(CC#N)N2C(=O)c3cccc(N)c3C2=O)ccc1OC` (configuration not stated) is higher in melting point: 154 to 157 °C for the first, 171 to 172 °C for the second.

`CCCc1nc2c(N)nc3ccccc3c2n1CC(N)=O` and `CCOCc1nc2c(N)nc3cc(-c4cn[nH]c4)ccc3c2n1CC(C)(C)O` cannot be ordered by melting point: > 300 °C for the first, > 250 °C for the second.

Compared with `O=C1C(Cc2ccccc2)N(c2ccc(Oc3ccccc3)cc2)C(=S)N1c1ccccc1` (configuration not stated), `O=C(O)c1cccc(-c2ncn(-c3ccc(-c4ccccc4)cc3)n2)c1` is higher in melting point: 130 °C for the first, 263 to 265 °C for the second.

First: O=c1c2ccc(F)cc2nc(C(S)c2ncnc3[nH]cnc23)n1-c1ccccc1Cl (configuration not stated)
Second: O=c1c2ccc(Cl)cc2[nH]c2c(O)nn(Cc3cccc(-c4nnn[nH]4)c3)c(=O)c12
The melting point of the first is lower: 151 to 154 °C for the first, > 275 °C for the second.

First: Cc1nn(CC(F)(F)COC(=O)c2cccnc2)c(-c2ccc(F)cc2)c1-c1ccc2c(c1)NC(=O)CO2
Second: Cc1oc(-c2ccccc2)nc1COc1ccc(Cn2cc(CCC(=O)O)c(-c3cccs3)n2)cc1
The melting point of the first is lower: 169 to 172 °C for the first, 172 to 173 °C for the second.

First: CN(CC(=O)O)c1cc(Br)ccc1[N+](=O)[O-]
Second: Cc1cc(N2C(=O)NC(C)(C)C2=O)ccc1[N+](=O)[O-]
The melting point of the first is lower: 152 to 155 °C for the first, 177 to 178 °C for the second.

First: Cc1nc2c(O)cccn2c(=O)c1Cc1ccccc1
Second: O=c1c(CCO)c(O)c2cccnc2n1-c1ccccc1
The melting point of the first is lower: 124 to 125 °C for the first, 235 to 236 °C for the second.

First: CC1(C)C(=O)Nc2cc3[nH]c(C(F)(F)F)nc3cc21
Second: Cc1c(Nc2ccc([N+](=O)[O-])cc2C(=O)O)cccc1C(F)(F)F
The melting point of the first is lower: 175 to 177 °C for the first, 244 to 245 °C for the second.

Compared with `CCOC1CCC2C3CCC4=CC(=O)CCC4=C3C(c3ccc(C=O)cc3)CC12C` (configuration not stated), `CCCC(=NOCC)C1=C(O)CC(c2ccc(C=O)cc2)CC1=O` (configuration not stated) is lower in melting point: 149 to 152 °C for the first, 81 to 82 °C for the second.

Compared with `Oc1c(C(=S)NCc2ccc(Cl)cc2)cnc2ccc(CN3CCOCC3)cc12`, `Cc1ccc(CC2CCN(CCOc3ccc4cc(O)ccc4c3)CC2)cc1` is lower in melting point: 215 to 216 °C for the first, 164 to 166 °C for the second.

First: CC(C)(C)c1cc(C2=NC(=S)N=N2)cc(C(C)(C)C)c1O
Second: CON1C=C2N=NC3=C(N2C1)N(c1ccccn1)CC(C)=C3
The melting point of the first is higher: > 250 °C for the first, 216 to 220 °C for the second.

First: O=C1Cc2c(-c3ccccc3)ccc(Cl)c2N1
Second: CCc1onc(-c2ccccc2)c1-c1ccccc1
The melting point of the first is higher: 234 to 236 °C for the first, 85 to 87 °C for the second.

Compared with `Cn1cc(C(=O)C(=O)N2CCN(c3nc4cc(C(=O)Nc5nc(C(C)(C)C)cs5)ccn4c(=O)c3/C=C/C(=O)O)CC2)nc1N`, `O=C(O)Cc1cccc(NC(=O)NC2C(=O)N(CC(=O)N3CCCC3)c3ccccc3N(c3ccccc3F)C2=O)c1` (configuration not stated) is lower in melting point: 210 to 216 °C for the first, 197 to 199 °C for the second.

Compared with `CC(C)[C@H](S)C(=O)NC(C)(C)C(=O)N[C@@H](COCc1ccccc1)C(=O)O`, `CC(C)(C)OC(=O)NCCCCC(NC(=O)OCc1ccccc1)C(N)=O` (configuration not stated) is higher in melting point: 57 to 70 °C for the first, 140 to 142 °C for the second.

First: COc1ccc(C(=S)Nc2ccccc2OC)cc1
Second: COc1ccc(CN2C(=O)C3(COc4cc5c(cc43)OCO5)c3ccccc32)cc1 (configuration not stated)
The melting point of the first is lower: 84.5 to 86.5 °C for the first, 147 to 148 °C for the second.

First: O=C1C2C3C=CC(CC3)C2S(=O)(=O)N1CCCCBr (configuration not stated)
Second: COCCN1c2ccc([N+](=O)[O-])cc2CS1(=O)=O
The melting point of the first is lower: 118 to 122 °C for the first, 130 to 132 °C for the second.

First: CSc1ncc2ccc(Cl)nc2n1
Second: Cc1nc(OCC#N)c(C#N)c(N2CCc3ccccc3CC2)n1
The melting point of the first is higher: 201 to 203 °C for the first, 68 to 74 °C for the second.

First: O=Cc1c[nH]nc1-c1ccc([N+](=O)[O-])o1
Second: CCOC(=O)c1cc2ccc(Oc3ccc([N+](=O)[O-])cc3)cc2oc1=O
The melting point of the first is higher: 184 to 186 °C for the first, 163 °C for the second.

First: COc1ccc(C(=CF)C(N)C(=O)O)cc1O (configuration not stated)
Second: COc1ccc2c(c1)C(=O)Cc1c(cccc1C(=O)O)S2
The melting point of the first is higher: 214 °C for the first, 157 to 160 °C for the second.

Compared with `COc1ccc2cc([C@H](C)C(=O)OCC3(CO[N+](=O)[O-])COCOC3)ccc2c1`, `COC(=O)C(CCSC)NC(=O)c1ccc(NCC2CC(O[Si](C)(C)C(C)(C)C)CN2C(=O)OC(C)(C)C)cc1-c1ccccc1` (configuration not stated) is lower in melting point: 98 °C for the first, 48 °C for the second.

Compared with `CCC(CC)Nc1cc(C)nc(Nc2c(C)cc(C)cc2C)c1CC(C(=O)OC)C(=O)OC`, `CCCSc1ncc(C(=O)N[C@H](C(=O)O)[C@@H](C)CC)n1Cc1ccccc1Cl` is higher in melting point: 136 to 138 °C for the first, 156 to 158 °C for the second.

First: Cc1ccc(C(NC2CCNCC2)(Oc2ccc(OCc3ccccc3)cc2)C(C)O)nc1 (configuration not stated)
Second: O=S(=O)(Nc1cccc(OCc2csc(-c3ccccc3)n2)c1)C(F)(F)F
The melting point of the first is higher: 123 to 125 °C for the first, 113 to 115 °C for the second.

First: O=P(O)(O)C1CC(c2ccc(F)cc2)=NO1 (configuration not stated)
Second: Cc1ccc(S(=O)(=O)N2CC(O)CC2C(=O)O)cc1 (configuration not stated)
The melting point of the first is higher: 206 °C for the first, 146 to 147 °C for the second.

First: Cc1cc(O)c(S(=O)(=O)CCC(C)C)c(=O)o1
Second: CCOC(=O)CN1C(=O)COc2cc(F)c([N+](=O)[O-])cc21
The melting point of the first is higher: 101 to 102 °C for the first, 79 to 81 °C for the second.

First: CC(C)[C@@H](CO)C[C@H](O)[C@H](CC1CCCCC1)NC(=O)OCc1ccccc1
Second: O=C1CC2CC(C1)CN(Cc1ccccc1)C2
The melting point of the first is higher: 113 to 114 °C for the first, 89 °C for the second.

First: OC1CCCC2Oc3ccccc3OC12 (configuration not stated)
Second: Cc1cc(C)c2c(c1C)O[C@@H](C)[C@H]2c1ccc(C(C)C)cc1 (relative stereo)
The melting point of the first is higher: 81 to 82 °C for the first, 79 to 80 °C for the second.

First: C[C@@H](CO)CCC[C@@H](C)[C@H]1C(=O)C[C@H]2[C@@H]3CC=C4C[C@@H](O)CC[C@]4(C)[C@H]3CC[C@]12C
Second: CC(=O)OCC1OC(n2cc(C(Br)=CBr)c(=O)[nH]c2=O)C(OC(C)=O)C1OC(C)=O (configuration not stated)
The melting point of the first is higher: 167 to 169 °C for the first, 83 to 85 °C for the second.

First: N#Cc1ccc(C=CCCC(=O)O)cc1
Second: N#Cc1ccc(C(F)(F)C23CCCN2C(=O)N(c2cc(Cl)cc(Cl)c2)C3=O)cc1 (configuration not stated)
The melting point of the first is higher: 154 to 156 °C for the first, 66 °C for the second.

First: CC(C)(C)OC(=O)NCC(=O)Nc1cccc(I)c1
Second: CCn1c2ccc(I)cc2c2cc(I)ccc21
The melting point of the first is higher: 126 to 128 °C for the first, 75 to 79 °C for the second.

First: CCCN1C(=O)CC(C)(C)c2cc(C)c(-c3cc(C=C4SC(=O)NC4=O)ccc3N(C)C)cc21
Second: COc1ccc(C2=NN(CCCCOc3ccc(C4=NNC(=O)C4(C)C)c(F)c3F)C(=O)C2(C)C)c2cc(C(F)(F)F)sc12
The melting point of the first is higher: 258 to 260 °C for the first, 167 to 168 °C for the second.

First: Cc1cc(CC#N)cc(Cc2nc3c(F)c(F)cc(F)c3s2)c1
Second: COc1nc2cc(Cl)c(Cl)c(-c3nnnn3CCCO)c2nc1OC
The melting point of the first is lower: 110 to 113 °C for the first, 188 to 189 °C for the second.

Compared with `Cc1ncc(C(=O)N2CC2C#N)s1` (configuration not stated), `COC(=O)N1Cc2c(O)noc2C(C)C1` (racemic) is higher in melting point: 90 to 92 °C for the first, 128 to 129 °C for the second.

First: CC#CCCn1ncc2c(N)c3c(nc21)CN(CCCC)C3=O
Second: CCC(CC)c1nnc(NC)n(N)c1=O
The melting point of the first is higher: 171 to 172 °C for the first, 119 to 120 °C for the second.

First: CN(C)C=CC(=O)c1cncnc1
Second: Cc1ncc([N+](=O)[O-])cc1C(=O)NCCO
The melting point of the first is lower: 133 to 135 °C for the first, 144 to 145 °C for the second.

First: CCCCCCCCCCOc1cnc(-c2ccc(CCCCCC(C)OC(C)=O)cc2)nc1 (configuration not stated)
Second: CN(C)c1ccc(CNc2ccc(C(F)(F)F)cc2[N+](=O)[O-])cc1
The melting point of the first is lower: 72 to 73 °C for the first, 158 to 160 °C for the second.
